US20250170252A1, “QUINONE PROTECTED FORMS AND CONJUGATES” (CAMBRIDGE ENTERPRISE LIMITED, priority 2022, published 2025)
Where two headings read alike, the source gives them in different places.

Experiments:
[1] = tested on: Aspc-1 pancreatic cancer cell line; test: CellTiter Glo viability assay, Aspc-1; assay type: cell-based; details: for toxicity without the β-glucuronidase enzyme: Aspc-1, up to 100 μM; for IC50: Homo sapiens, ASPC1, 48 h
Method: (§1) For CellTiter Glo viability assays, 10,000 cells per well were plated on Day 1 and were allowed to adhere to the plate surface for 24 hours. Optimized concentration ranges of prodrugs were determined and made via serial dilution. […] Cells were incubated with compound for 48 hours and viability was assessed on Day 4 using the CellTiter Glo Viability assay which measures metabolically active cells by quantifying the amount of ATP present.
(§2) Panc-1 cells were obtained from Tony Kouzarides' lab in the Gurdon Institute at the University of Cambridge and put into culture at passage 10 containing DMEM media (Gibco) supplemented with 1% Pen-Strep antibiotic (Gibco), 1% L-glutamine, and 10% fetal bovine serum (FBS, sterile-filtered). Aspc-1 cells were bought commercially from the American Type Culture Collection (ATCC) and put into culture containing RPMI 1640 media (Gibco) supplemented with 1% Pen-Strep antibiotic (Gibco), 1% L-glutamine, and 20% fetal bovine serum (FBS, sterile-filtered). All cell lines were started at passage 10 and passaged every 3 days by centrifuging at 1000 rpm for 4 minutes.

[2] = Glucuronide kinetics assay (release of β-lapachone after β-glucuronide deprotection); assay type: physicochemical
Method: Glucuronide prodrug (37a, b, c, d) was dissolved in DMSO to a concentration of 10 mM. A 100 mM stock solution of warfarin in DMSO was also prepared. To obtain deprotected para-hydroxybenzyl ketol species, the glucuronide stock solution was dissolved in PBS with 16.7% DMF to a concentration of 1.7 mM. 15 μL of a stock solution of R-glucuronidase from E. coli K-12 (Roche #03707580001, 140 U/mL) was added to 900 μL of this stock and incubated for 20 min at 37° C. 15 μL of a 100 mM stock of warfarin internal standard in DMSO was added. Reactions were then set up immediately. For a reaction, 30 μL of the amino-benzyl ketol/standard stock was added to 195 μL of citrate-phosphate buffer at the specified pH. Test samples were incubated at 37° C. with shaking. At the recorded time points, 20 μL aliquots of the reactions were analysed by HPLC (254 nm, Agilent 1260 Infinity). HPLC conditions: column Agilent InfinityLab Poroshell 120 SB—C18 2.7 μm, 50×4.6 mm; solvent system A=H2O+0.1% TFA, B=acetonitrile+0.1% TFA; flow=1 mL/min. Gradient: t=0-1 min 0% B, t=1-2 min 0-30% B, t=2-17 min 30-40% B, t=17-17.1 min 40-100% B, t=17.1-18 min 100% B, t=18-23 min 0% B. Relative peak area represents raw peak area (mAU*s) normalized to raw peak area of the warfarin internal standard. Values recorded are averages of three independent reactions and error bars display standard error of the mean. Values were fitted to first-order kinetics using GraphPad Prism 9 software. A positive control experiment was performed under identical conditions with known substrate 4-nitrophenyl-β-D-glucuronide (Sigma Aldrich) to confirm enzyme activity.

[3] = tested on: Panc-1 pancreatic cancer cell line; test: CellTiter Glo viability assay, Panc-1; assay type: cell-based; details: for IC50: Homo sapiens, PANC-1, 48 h; for toxicity without the β-glucuronidase enzyme: Panc-1, up to 100 μM
Method: as §1, §2

[4] = Penicillin-G amidase mediated kinetic analysis of elimination at physiological pH; assay type: physicochemical; details: pH 7.4, 37° C.
Method: Stocks of 2-phenylacetyl-para-aminobenzyl ketol were made up in DMF at a concentration of 10 mM. For a reaction, 17.5 μL of ketol stock was added to 17.5 μL of a 10 mM stock of internal standard in DMF and 310 μL of PBS at pH 7.4. To initiate a reaction, 5 μL of a suspension of Penicillin-G amidase (PenG, Sigma Aldrich enzyme 76427, 5-10 U/mg) was added. In control samples 5 μL of PBS was added in place of the enzyme. Test and control samples were then incubated at 37° C. with shaking. At the recorded time points, 20 μL aliquots of the reactions were analysed by HPLC (254 nm, ThermoFisher U3000). HPLC column: Phenomenex Kinetex C18, 5 μm, 50×4.6 mm, 100 Å; flow=1 mL/min. Gradient and solvent system for assay with 2-phenylacetyl-PAB-PhQ 21: A=H2O, B=acetonitrile, t=0-1 min 0% B, t=1-10 min 0-100% B, t=10-11 min 0% B. Gradient and solvent system for assay with 2-phenylacetyl-PAB-BL 22 and 2-phenylacetyl-PAB-DN 23: A=H2O+0.1% formic acid, B=acetonitrile+0.1% formic acid, t=0-1 min 0% B, t=1-10 min 0-40% B, t=10-16 min 40-50% B, t=16.1 min 100% B, t=16.1-18 min 100% B, t=18-20 min 0% B. Peaks were identified by LCMS analysis and comparison with pure compounds. Values described represent peak area (mAU*min) divided by peak area of internal standard. Recorded values are averages of three independent reactions and error bars display standard error of the mean. Fitting was performed using GraphPad Prism 8 software. Rate and half-life measurements were calculated by consumption of intermediate para-aminobenzyl ketol and formation of product quinone.

[5] = pH-rate aqueous kinetic analysis of fragmentation (para-aminobenzyl ketols); assay type: physicochemical; details: for pH at which elimination rate peaks / half-life at 0.155 mM: citrate-phosphate buffer; for half-life at 0.155 mM: pH 7, pH 7, read-out: release t1/2 (converted)
Method: pH-rate analysis was performed by adaption of the PenG assay. To obtain deprotected para-aminobenzyl ketol species, 2-phenylacetyl protected ketol was dissolved in PBS with 33% DMF to a concentration of 3.3 mM. 20 μL of a stock solution of PenG was added to 600 μL of this stock and incubated for 20 min at 37° C. 20 μL of a 100 mM stock of internal standard in DMSO was added. Reactions were then set up immediately. For a reaction, 10 μL of the amino-benzyl ketol/standard stock was added to 190 μL of citrate-phosphate buffer at the specified pH to obtain an aqueous solution containing 1.8% DMSO. Test samples were incubated at 37° C. with shaking. At the recorded time points, 20 μL aliquots of the reactions were analysed by HPLC (254 nm, ThermoFisher U3000). HPLC conditions: column Phenomenex Kinetex C18 5 μm, 50×4.6 mm, 100 Å; solvent system A=H2O, B=acetonitrile; flow=1 mL/min. Gradient and solvent system for assay with PAB-PhQ 7: A=H2O, B=acetonitrile, t=0-1 min 0% B, t=1-10 min 0-100% B, t=10-11 min 0% B. Gradient and solvent system for assay with PAB-BL 10 and PAB-DN 18: A=H2O+0.1% formic acid, B=acetonitrile+0.1% formic acid, t=0-1 min 0% B, t=1-10 min 0-40% B, t=10-16 min 40-50% B, t=16.1 min 100% B, t=16.1-18 min 100% B, t=18-20 min 0% B. Values described represent peak area (mAU*min) divided by peak area of internal standard. Where necessary, peaks were deconvoluted using Origin fitting software. Recorded values are averages of three independent reactions and error bars display standard error of the mean. Values were fitted using GraphPad Prism software. Rate and half-life measurements were calculated based on disappearance of the para-aminobenzyl ketol species.

[6] = 1H NMR kinetic analysis of elimination of PAB-PhQ; assay type: physicochemical; details: 25° C., moderately acidic methanolic solution
Method: Kinetics of the release of PhQ 4, from PAB-PhQ 7 were monitored by ^1H NMR at 25° C. Analysis was performed in MeOD due to poor solubility of the compound in H2O. To form the active eliminating species, Boc-PAB-PhQ 6 was dissolved in dichloromethane/trifluoroacetic acid 4:1 at 0° C. and stirred for 30 min, upon which the reaction appeared complete by thin-layer chromatography. Product 7 was dried in vacuo before being dissolved in MeOD. Basicity of the solution was altered by addition of triethylamine (drops). pH was estimated using pH paper. pH values are indicative only as analysis is performed in MeOD. Elimination rates were determined from the aromatic region. Kinetics were measured by monitoring the integral of one peak, normalised to number of protons present (i.e. integral of 1H), divided by the total integral of the aromatic region (δ=6.2-8.6 ppm, i.e. integral of 12H). Analysis was performed using Mestrenova 8.0 processing software and rate constants were calculated using GraphPad Prism v8.0 software.

MOLM-13 = test: Viability assay with small molecule prodrugs, Trypan Blue exclusion, MOLM-13; assay type: cell-based; details: 5 μM, 24 h timepoint
Method: For assays assessing cytotoxicity of β-lapachone versus small molecule dipeptide prodrugs, suspension cells were plated into 24 well plates at a density of 2.5×10^5 cells/mL in 240 μL. Serial dilutions of compound were made up in PBS. 60 μL of each stock of either PBS, or compound in PBS was added to the cells to achieve the desired final concentration. After the specified incubation time, toxicity was assessed by counting of live cells using the Trypan Blue exclusion method with a Countess II Automated Cell Counter (ThermoFisher Scientific) according to the manufacturer's instructions. Cell viability was determined by division of average live cell number of treated wells by average live cell number for control wells treated with PBS only. Values recorded are the mean of three repeat wells, with error bars representing the standard error of the mean for each concentration tested. IC50 values were calculated using GraphPad Prism software.

## COc1cc(O[C@@H]2O[C@H](C(=O)O)[C@@H](O)[C@H](O)[C@H]2O)ccc1CC1(O)C(=O)C2=C(OC(C)(C)CC2)c2ccccc21 (single isomer, unassigned) [Compound 37d]
[1]
  toxicity without the β-glucuronidase enzyme: no toxicity
  IC50: 2.99 µM
[2]; pH 6-10 (FIG. 7)
  release rate compared with other derivatives: orders of magnitude faster release
[3]
  IC50: 0.904 µM
  toxicity without the β-glucuronidase enzyme: no toxicity

## Nc1ccc(CC2(O)C(=O)c3ccccc3-c3ccccc32)cc1 (centres unmarked) [Compound 7, 10-(4-aminobenzyl)-10-hydroxyphenanthren-9(10H)-one]
[4]; intermediate 7 generated from 21
  elimination of 7, rate kobs: 9.72 (±2.88)×10^−6 s^−1
[5]; 37° C.
  pH at which elimination rate peaks: 5-6
[6]; first-order fit
  rate of consumption of 7 (kobs): 6.18±0.12×10^−5 s^−1
[6]; from 7
  rate of formation of product 4 (kobs): 6.55±0.22×10^−5 s^−1
[6]; release of 4 from 7
  time to complete release: ≤ 20 h

## CC1(C)CCC2=C(O1)c1ccccc1C(O)(Cc1ccc(N)cc1)C2=O (centres unmarked) [Compound 10, 6-(4-aminobenzyl)-6-hydroxy-2,2-dimethyl-2,3,4,6-tetrahydro-5H-benzo[h]chromen-5-one]
[5]; 37° C.
  pH at which elimination rate peaks: 3
[5]; additional repeats of the experiments
  half-life at 0.155 mM: 542 days
[5]; initially reported value
  half-life at 0.155 mM: 32.9 days
[5]; pH 7, initially reported value
  release rate kobs: 2.4e-07 s⁻¹
[5]; pH≥6 within 72 h, 37° C.
  elimination resulting in formation of 1: Negligible elimination

## O=C(Cc1ccccc1)Nc1ccc(CC2(O)C(=O)c3ccccc3-c3ccccc32)cc1 (centres unmarked) [Compound 21, 2-Phenyl-acetyl-para-aminobenzyl phenanthrene-ketol]
[4]; following addition of Penicillin-G amidase to 21
  formation of PhQ 4, rate kobs: 1.15 (±0.66)×10^−5 s^−1
[4]; no Penicillin-G amidase
  stability without added enzyme: stable

## CC(=O)Oc1c2c(c3ccccc3c1OC(C)=O)OC(C)(C)CC2 [Compound 29, 2,2-dimethyl-3,4-dihydro-2H-benzo[h]chromene-5,6-diyl diacetate]
MOLM-13
  toxicity to MOLM-13: complete cell death

## CC1(C)CCC2=C(O1)c1ccccc1C(O)(Cc1cc(F)c(O[C@@H]3O[C@H](C(=O)O)[C@@H](O)[C@H](O)[C@H]3O)c(F)c1)C2=O (stereo partly drawn) [Compound 37b, (2S,3S,4S,5R,6S)-6-(2,6-difluoro-4-((6-hydroxy-2,2-dimethyl-5-oxo-3,4,5,6-tetrahydro-2H-benzo[h]chromen-6-yl)methyl)phenoxy)-3,4,5-trihydroxytetrahydro-2H-pyran-2-carboxylic acid]
[1]
  toxicity without the β-glucuronidase enzyme: no toxicity
  IC50: 24.4 µM
[2]; pH 3-7 (FIG. 6)
  elimination rate compared with plain PHB linker: faster
[2]; pH 3-8.5 (FIG. 7)
  elimination rate compared with plain PHB linker 37a: faster
[2]; pH 7, 37° C., after β-glucuronide deprotection, first experiments
  release rate of β-lapachone, kobs: 2.68e-06 s⁻¹
[2]; pH 7, additional fragmentation experiments
  quinone release rate, kobs: 4.2e-06 s⁻¹
[2]; pH 8-10 (FIG. 6)
  elimination rate compared with plain PHB linker: slower
[2]; pH 9-10 (FIG. 7)
  elimination rate compared with plain PHB linker 37a: slower
[3]
  IC50: 13.4 µM
  toxicity without the β-glucuronidase enzyme: no toxicity

## para-Aminobenzyl dunni-ketol [Compound 18]
[5]; 37° C., range of pH values
  elimination rate compared with PAB-BL 10: very similar rate
